Laboratory results: US20180312493A1, “Antibiotic Compounds, Pharmaceutical Formulations Thereof And Methods And Uses Therefor” (Simon Fraser University, priority 2015, published 2018)
pIC50: −log10 of the molar value. Values after ≈ are worked out from the molar mass of the structure shown.

How the values were obtained:
S. aureus (ATCC29213) = assay: In vitro susceptibility, broth microdilution (MIC); format: cell-based; conditions: Staphylococcus aureus; S. aureus ATCC29213; 18-24 h, 37 C; read-out: Antimicrobial activity (MIC) S. aureus ATCC29213
Method in brief: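 CLSI 2-fold serial broth microdilution; K. pneumoniae C238 grown in L-broth, S. aureus ATCC 29213 in Mueller Hinton broth, plates incubated 18–24 h at 37 °C. MIC taken as lowest concentration giving complete growth inhibition by OD600 versus compound-free wells, background-subtracted.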

[1] = tested on: A. baumannii (ATCC 17978); assay: In vitro susceptibility, broth microdilution (MIC); format: cell-based; conditions: Acinetobacter baumannii, ATCC17978; A. baumannii ATCC 17978 (values marked *); read-out: Antimicrobial activity (MIC) A. baumannii
Text: Epidemic methicillin resistant S. aureus (MRSA) strain sequenced at the Sanger Centre (MRSA252, NRS71) was obtained from NARSA (Network on Antimicrobial Resistance in S. aureus). Methicillin sensitive S. aureus (ATCC 29213 and 25923), methicillin resistant S. aureus (ATCC BAA-1762), and Salmonella typhimurium (ATCC BAA-185) were obtained from ATCC, The Global Bioresource Center. Acinetobacter baumannii (ATCC 19606 and ATCC 17978), Klebsiella pneumonia (C238), vancomycin resistant Enterococci #2 (2010A) (VRE#2), MRSA (USA400, MW2) and Pseudomonas aeruginosa (PA0-1) were obtained from the laboratory of Dr B. B. Finlay at the University of British Columbia (Vancouver, Canada).
The antimicrobial activities of PK inhibitor candidates were determined using the 96-well microtiter standard 2-fold serial broth microdilution method as described by CLSI (formerly NCCLS) with the various gram-positive and gram-negative bacteria species mentioned above. Bacteria from a single colony were grown, overnight in either BHI Broth (VRE), mueller hinton broth (S. aureus 29213; MRSA USA400, A. baumannii 19606, MRSA BAA-1762) or L-broth (P. aeruginosa, S. typhimurium, K. pneumonia and A. baumannii 17978). Each compound was prepared in DMSO with 2-fold serial dilutions to give a final concentration of, 0.031 to 64 μg/ml. 10 μl of the compound solution was then added, in duplicate, to either, 190 μl of cation adjusted mueller hinton broth (CAMHB) or 190 μl CAMHB containing ˜2.5×10^5 CFU/ml of bacteria (final compound concentration 0.031 to 64 μg/ml). Culture plates were incubated for 18-24 h at 37° C., and optical density at 600 nm (OD600) was measured using a Benchmark Plus™ microplate spectrophotometer (Bio-Rad™). The absorbance control values for the series containing CAMHB and inhibitor were subtracted as background from the corresponding infected wells. Minimal inhibitory concentration (MIC) was defined as the lowest concentration of test compound leading to complete inhibition of cell growth in relation to compound-free control wells as determined by optical density. Vancomycin, methicillin and ciprofloxicin were used as reference compounds. All assays were run in triplicate or duplicate. Experiments were replicated at least twice to verify reproducibility using the above conditions.

MRSA Pyk = biological target: T1, MRSA Pyk (Staphylococcus aureus, UniProt Q6GG09); assay: MRSA pyruvate kinase (PK) activity, continuous LDH-coupled assay; format: biochemical, methicillin resistant S. aureus (MRSA252)
T1 construct: made in house; host or cells: E. coli BL-21 (DE3)
Method in brief: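 His-tagged MRSA PK (strain Sanger 252) and human PK isoforms expressed in E. coli BL-21 (DE3) and Ni-NTA purified, used at 15 nM in an LDH-coupled assay following NADH oxidation at 340 nm, 30° C, up to 5 min, ≤1% DMSO. IC50 from four-parameter variable-slope fit; Ki with PEP 2-20 mM, ADP fixed 2 mM, inhibitor 0-400 nM.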

SMILES	MIC (S. aureus (ATCC29213))	MIC [1]	pIC50 (MRSA Pyk)
NC(=O)[C@@H]1CCCN1CCNC(=O)c1c(-c2cc3cc(Cl)ccc3[nH]2)[nH]c2cc(Br)ccc12 [Compound 120, (S)-6-Bromo-N-(2-(2-carbamoylpyrrolidin-1-yl)ethyl)-5′-chloro-1H,1′H-[2,2′-biindole]-3-carboxamide]	> 64 µg/mL	> 64 µg/mL	> 7.00
COCC(=O)N1CCCN(CCNC(=O)c2c(-c3cc4cc(Cl)ccc4[nH]3)[nH]c3cc(Br)ccc23)CC1 [Compound 121, 6-Bromo-5′-chloro-N-(2-(4-(2-methoxyacetyl)-1,4-diazepan-1-yl)ethyl)-1H,1′H-[2,2′-biindole]-3-carboxamide]	> 64 µg/mL	> 64 µg/mL	> 7.00
O=C(NCCN1CCC[C@H]1C(=O)O)c1c(-c2cc3cc(Cl)ccc3[nH]2)[nH]c2cc(Br)ccc12 [Compound 125, (2-(6-Bromo-5′-chloro-1H,1′H-[2,2′-biindole]-3-carboxamido)ethyl)-L-proline]	> 64 µg/mL	> 64 µg/mL	> 7.00
O=C1CN(CCNC(=O)c2c(-c3cc4cc(Cl)ccc4[nH]3)[nH]c3cc(Br)ccc23)CCN1 [Compound 127, 6-bromo-5′-chloro-N-(2-(3-oxopiperazin-1-yl)ethyl)-1H,1′H-2,2′-biindole-3-carboxamide]	> 64 µg/mL	> 64 µg/mL	> 7.00
NC(=O)N1CCC(NCCNC(=O)c2c(-c3cc4cc(Cl)ccc4[nH]3)[nH]c3cc(Br)ccc23)CC1 [Compound 131, 6-bromo-N-(2-(1-carbamoylpiperidin-4-ylamino)ethyl)-5′-chloro-1H,1′H-2,2′-biindole-3-carboxamide]	> 64 µg/mL	64 µg/mL (≈ 115 µM)	
COC(CNC(=O)c1c(-c2cc3cc(Cl)ccc3[nH]2)[nH]c2cc(Br)ccc12)OC [Compound 134, 6-Bromo-5′-chloro-N-(2,2-dimethoxyethyl)-1H,1′H-[2,2′-biindole]-3-carboxamide]	> 64 µg/mL	> 64 µg/mL	
CCOC(CCCNC(=O)c1c(-c2cc3cc(Cl)ccc3[nH]2)[nH]c2cc(Br)ccc12)OCC [Compound 135, 6-Bromo-5′-chloro-N-(4,4-diethoxybutyl)-1H,1′H-[2,2′-biindole]-3-carboxamide]	> 64 µg/mL	> 64 µg/mL	
O=C(NCCc1ccncc1)c1c(-c2cc3cc(Cl)ccc3[nH]2)[nH]c2cc(Br)ccc12 [Compound 142, 6-bromo-5′-chloro-N-(2-(pyridin-4-yl)ethyl)-1H,1′H-[2,2′-biindole]-3-carboxamide]	> 64 µg/mL	> 64 µg/mL	> 7.00
O=C(NCCN1CCNCC1=O)c1c(-c2cc3cc(Cl)ccc3[nH]2)[nH]c2cc(Br)ccc12 [Compound 143, 6-bromo-5′-chloro-N-(2-(2-oxopiperazin-1-yl)ethyl)-1H,1′H-[2,2′-biindole]-3-carboxamide]	> 64 µg/mL	> 64 µg/mL	
COc1cc2sc(NC(=O)Nc3ccccc3)nc2cc1Br [Compound 153, 1-(5-bromo-6-methoxybenzo[d]thiazol-2-yl)-3-phenylurea]	> 64 µg/mL	> 64 µg/mL	
O=C(Nc1ccc([N+](=O)[O-])cc1)Nc1nc2cc(Br)ccc2s1 [Compound 154, 1-(5-bromobenzo[d]thiazol-2-yl)-3-(4-nitrophenyl)urea]	> 64 µg/mL	> 64 µg/mL	
CC(=O)OCCCNC(=O)c1c(-c2cc3cc(Cl)ccc3[nH]2)[nH]c2cc(Br)ccc12 [Compound 183, 3-(6-Bromo-5′-chloro-1H,1′H-[2,2′-biindole]-3-carboxamido)propyl Acetate]	> 64 µg/mL	> 64 µg/mL	> 7.00
CC(C)[C@@H](C(=O)OCCCNC(=O)c1c(-c2cc3cc(Cl)ccc3[nH]2)[nH]c2cc(Br)ccc12)N(C)C [Compound 185, 3-(6-Bromo-5′-chloro-1H,1′H-[2,2′-biindole]-3-carboxamido)propyl Dimethyl-L-valinate]	> 64 µg/mL	> 64 µg/mL	> 7.00
COC(=O)COc1cc2[nH]c(-c3cc4ccc(Br)cc4[nH]3)cc2cc1Cl [Compound 188, Methyl 2-((6′-bromo-5-chloro-1H,1′H-[2,2′-biindol]-6-yl)oxy)acetate]	> 64 µg/mL	> 64 µg/mL	> 7.00
CN(C)CCNC(=O)COc1cc2[nH]c(-c3cc4ccc(Br)cc4[nH]3)cc2cc1Cl [Compound 189, 2-((6′-Bromo-5-chloro-1H,1′H-[2,2′-biindol]-6-yl)oxy)-N-(2-(dimethylamino)ethyl)acetamide]	> 64 µg/mL	> 64 µg/mL	> 7.00
O=C(COc1cc2[nH]c(-c3cc4ccc(Br)cc4[nH]3)cc2cc1Cl)NCCO [Compound 192, 2-((6′-Bromo-5-chloro-1H,1′H-[2,2′-biindol]-6-yl)oxy)-N-(2-hydroxyethyl)acetamide]	> 64 µg/mL	> 64 µg/mL	> 7.00
O=C(O)CNC(=O)c1c(-c2cc3cc(Cl)ccc3[nH]2)[nH]c2cc(Br)ccc12 [Compound 204, (6-Bromo-5′-chloro-1H,1′H-[2,2′-biindole]-3-carbonyl)glycine]	64 µg/mL (≈ 143 µM)	> 64 µg/mL	> 7.00

Continued, in another order:

MIC (S. aureus (ATCC29213))	MIC [1]	SMILES	pIC50 (MRSA Pyk)
> 64 µg/mL	> 64 µg/mL	COC(=O)c1c(NC(=O)Nc2ccc(Cl)cc2)[nH]c2cc(Br)ccc12 [Compound 181, Methyl 6-bromo-2-(3-(4-chlorophenyl)ureido)-1 H-indole-3-carboxylate]	
> 64 µg/mL	> 64 µg/mL	CN1CCN(CCNC(=O)COc2cc3[nH]c(-c4cc5ccc(Br)cc5[nH]4)cc3cc2Cl)C(c2ccccc2)C1 (stereo not shown) [Compound 194, 2-((6′-Bromo-5-chloro-1H,1′H-[2,2′-biindol]-6-yl)oxy)-N-(2-(4-methyl-2-phenylpiperazin-1-yl)ethyl)acetamide]	
> 64 µg/mL	> 64 µg/mL	Clc1cnc2nc(-c3cc4ccc(Br)cc4[nH]3)[nH]c2c1 [Compound 209, 2-(6-Bromo-1H-indol-2-yl)-6-chloro-1H-imidazo[4,5-b]pyridine]	
> 64 µg/mL	> 64 µg/mL	Brc1ccc2cc(-c3nc4ncc(Br)cc4[nH]3)[nH]c2c1 [Compound 210, 6-Bromo-2-(6-bromo-1H-indol-2-yl)-1H-imidazo[4,5-b]pyridine]	
> 64 µg/mL	> 64 µg/mL	OCCn1c(-c2cc3ccc(Br)cc3[nH]2)nc2cc(Cl)c(Cl)cc21 [Compound 211, 2-(2-(6-Bromo-1H-indol-2-yl)-5,6-dichloro-1H-benzo[d]imidazol-1-yl)ethan-1-ol]	
> 64 µg/mL	> 64 µg/mL	CN(C)CCn1c(-c2cc3ccc(Br)cc3[nH]2)nc2cc(Cl)c(Cl)cc21 [Compound 212, 2-(2-(6-Bromo-1H-indol-2-yl)-5,6-dichloro-1H-benzo[d]imidazol-1-yl)-N,N-dimethylethan-1-amine]	
> 64 µg/mL	> 64 µg/mL	O=C(O)Cn1c(-c2cc3ccc(Br)cc3[nH]2)nc2cc(Cl)c(Cl)cc21 [Compound 213, 2-(2-(6-Bromo-1H-indol-2-yl)-5,6-dichloro-1H-benzo[d]imidazol-1-yl)acetic Acid]	
> 64 µg/mL	> 64 µg/mL	CC(C)(C)OC(=O)CCn1c(-c2cc3ccc(Br)cc3[nH]2)nc2cc(Cl)c(Cl)cc21 [Compound 214, tert-Butyl 3-(2-(6-bromo-1H-indol-2-yl)-5,6-dichloro-1H-benzo[d]imidazol-1-yl)propanoate]	
